Measured values: patent publication US20230355599A1, “BIOMARKERS FOR CBL, AND COMPOSITIONS AND METHODS FOR THEIR USE” (NURIX THERAPEUTICS, INC., priority 2022, published 2023)

What was measured:
pY759-PLCg2 = assay: Phosphoprotein screen in human whole blood with CBL inhibitor at 10 uM: PLCγ2; type: cell-based; conditions: 1 hr 37° C., human whole blood 8 donors, anti-CD3/CD28 + crosslinker 60 minutes
Method: (§1) To identify proximal biomarkers of CBL-B inhibition in immune cells, a panel of phosphorylated proteins were screened in human whole blood incubated with CBL-B inhibitor and concomitant anti-CD3 and anti-CD28 antibodies. The effect of CBL-B inhibition was assessed across multiple cellular signaling networks.
(§2) Human heparinized whole blood from 8 donors was received after an overnight shipment at 4° C. The blood was plated, treated with CBL inhibitor at 10 uM and incubated at 37° C. for 60 minutes. After incubation, the cells were stimulated with anti-CD3/CD28 followed by a cross-linking antibody (30 μg of goat anti-mouse IgG (H+L) antibody (Invitrogen)). After 60 minutes, the cells were fixed, and stained using surface markers for T cells (CD3^+CD4^+& CD3^+CD8^+) and analyzed by flow cytometry for target phosphorylation of the following markers: pY180/pY511-ITK, pY397-HS1, pY759-PLCg2, pY783-PLCg1, pY525/pY526/pY348-SYK & pY319-Zap70.
(§3) Fold change of each biomarker was calculated with the following example equation: […]
(§4) Whole blood from eight human donors was collected in sodium heparin anti-coagulant treated with 10 μM of Compound 23 for 1 hr at 37° C. […] Fold change of % phosphorylation normalized to DMSO was quantitated in T cells (CD8^+) using flow cytometry is provided in FIGS. 6A-6B.

pY525/pY526/pY348-SYK = assay: Phosphoprotein screen in human whole blood with CBL inhibitor at 10 uM: SYK; type: cell-based; conditions: 1 hr 37° C., human whole blood 8 donors, anti-CD3/CD28 + crosslinker 60 minutes
Method: as §1, §2, §3, §4

phosphorylated HS1 = assay: HS1 phosphorylation in stimulated CD8+ T cells of mice after a single oral dose (flow cytometry); type: in vivo
Method: To assess the in vivo effects of Compound 23 on candidate clinical proximal biomarkers of CBL-B inhibition and compare them to anti-tumor efficacy, two experiments were performed in mice. In the first experiment, whole blood was obtained from groups of mice (n=4 per group) administered a single oral dose of either vehicle (0.5% MC/0.2% polysorbate 80 in deionized water) or increasing doses of Compound 23 at 0.3, 1, 3, 10, 30, or 90 mg/kg. The response to Compound 23 on HS1 activation was measured in anti-CD3 and anti-CD28 stimulated CD8^+ T cells using flow cytometry. Compound 23 induced a dose-dependent increase in the proportion of phosphorylated HS1^+CD8^+ in the presence of anti-CD3 and anti-CD28 co-stimulation. The greatest induction of phosphorylated HS1 was observed upon ex vivo stimulation following administration of Compound 23 doses of ≥10 mg/kg. […] Statistical significance was calculated using 2-way ANOVA with Dunnett's multiple comparisons test.

phosphorylated PLCγ2 = assay: Phosphorylated PLCγ2 in circulating CD8+ T cells of patients, Phase 1 trial (flow cytometry); type: in vivo, human
Method: [The procedure below names another target; the source lists this target under the same test.] Pharmacodynamic analysis of the proximal biomarker, phosphorylated HS1 is assessed in circulating CD8^+ T cells from patients that are being administered doses ranging from 5 to 50 mg of Compound 23 once daily and is being used to assess target engagement of Compound 23 as part of the dose/exposure-response profile. Whole blood is collected longitudinally and added into two types of TruCulture (Myriad) tubes. One tube contains media, and the second tube contains anti-CD3 and anti-CD28, which are subsequently crosslinked to induce cellular stimulation for pharmacodynamic analysis. Phosphorylated HS1 is assessed by flow cytometry pre and post dose on Cycle 1 Day 1 (C1D1) and Cycle 2 Day 1 (C2D1) to characterize single/multiple dose PD profiles.
% Maximal phosphorylated signal and % AUC are two commonly used parameters to assess the pharmacodynamic effects of drugs.
% Maximal phosphorylated signal refers to the maximum amount of a specific protein that becomes phosphorylated (i.e., modified by the addition of a phosphate group) in response to a drug or other stimulus. This parameter is often used to measure the activation of signaling pathways that are important for various cellular processes, including cell growth and differentiation, immune response, and metabolism.
% AUC, on the other hand, refers to the area under the curve (AUC) over time, expressed as a percentage of the maximum possible AUC. In summary, both % maximal phosphorylated signal and % AUC are useful parameters to assess the pharmacodynamic effects of drugs. % maximal phosphorylated signal is a measure of the activation of signaling pathways, while % AUC reflects the duration of the effect on PD signals. Both parameters can be used to evaluate the potency and duration of a drug's pharmacodynamic effects.

[1] = 5 mg once daily, n=1, cycle 1, day 1
[2] = 15 mg once daily, n=12, cycle 1, day 1
[3] = 25 mg once daily, n=7, cycle 1, day 1
[4] = 50 mg once daily, n=2, cycle 1, day 1

In the case of `C[C@H]1CCCN(Cc2cc3c(c(C(F)(F)F)c2)CN(c2cccc([C@]4(c5nncn5C)C[C@@H](C)C4)c2)C3=O)C1` [Compound 23], the “increased phosphorylation of PLCγ2 compared to DMSO control” value (pY759-PLCg2) is reported as 3-4 fold, the “increased phosphorylation of SYK compared to DMSO control” value (pY525/pY526/pY348-SYK) is reported as 2-3 fold and the “proximal biomarker pHS1 that correlates with the efficacious range” value (phosphorylated HS1; pHS1+CD8+ T cells, mouse syngeneic tumor models, therapeutic range) is reported as “approximately 50%”. The “minimum biological effect level observed in mice (EC50), phosphorylated HS1+ CD8+” value (phosphorylated HS1; single oral dose 0.3-90 mg/kg, anti-CD3 and anti-CD28 stimulated CD8+ T cells) was 12 mg/kg, the “doses giving the greatest induction of phosphorylated HS1” value (phosphorylated HS1; single oral dose, ex vivo stimulation) was ≥ 10 mg/kg and the “trend of maximal or AUC % pPLCγ2 with PK” value (phosphorylated PLCγ2) was “No apparent trend”. The “% of phosphorylated PLCγ2 expressing CD8+ T cells (maximal)” value (phosphorylated PLCγ2; [1]) was 56%, the “phosphorylated PLCγ2 AUC” value (phosphorylated PLCγ2; [1]) was 1003 and the “% of phosphorylated PLCγ2 expressing CD8+ T cells (maximal)” value (phosphorylated PLCγ2; [2]) was 81%. The “phosphorylated PLCγ2 AUC” value (phosphorylated PLCγ2; [2]) was 1616, the “% of phosphorylated PLCγ2 expressing CD8+ T cells (maximal)” value (phosphorylated PLCγ2; [3]) was 85% and the “phosphorylated PLCγ2 AUC” value (phosphorylated PLCγ2; [3]) was 1807. For the same molecule, the “% of phosphorylated PLCγ2 expressing CD8+ T cells (maximal)” value (phosphorylated PLCγ2; [4]) was 75% and the “phosphorylated PLCγ2 AUC” value (phosphorylated PLCγ2; [4]) was 1706.
